Article PMC9405216, “Antimicrobial and Cytotoxic Cyathane-Xylosides from Cultures of the Basidiomycete Dentipellis fragilis” (Antibiotics, 2022)
In brackets after ≈: the same amount, converted by molar mass. Read-outs that look alike come from different tables or passages of the source. Marks after values point to notes of the source that are not given here.

Experiments:
Type in all cases: cell-based
[1] = tested on: KB3.1 (ACC158) human endocervical adenocarcinoma; assay: MTT cytotoxicity test, KB3.1; settings: KB3.1 human endocervical adenocarcinoma, five days incubation, n.c. = no cytotoxicity, read-out: IC50
Excerpt: (§1) A panel of mammalian cell lines was used to determine the cytotoxicity of the compounds following a previously published protocol. The assay was initially performed using the sensitive cell lines KB3.1 (human endocervical adenocarcinoma) and L929 (mouse fibroblasts). Active compounds were further tested using the cell lines MCF-7 (human breast adenocarcinoma), PC-3 (human prostate adenocarcinoma), SKOV-3 (ovarian carcinoma), A549 (human lung carcinoma), and A431 (human squamous cell carcinomas) (Table 6). The cell lines A549, KB 3.1, and L929 were cultured in DMEM (Gibco, provided by Thermo Fisher Scientific), PC-3 in F12-K (Gibco) and MC-7, and SKOV-3 and A431 in RPMI (Gibco). With the exception of A549, all cell lines were supplemented with 10% bovine serum (Gibco). All cell lines were cultured at 37 °C. The L929 and KB 3.1 cell lines were cultivated under an atmosphere of 10% (v/v) carbon dioxide. Cytotoxicity tests were then carried out using MTT (3-(4,5-dimethylthiazol-2-yl)-2,5-diphenyltetrazolium bromide) in 96-well microtiter plates. Serial dilutions of the compounds (60 µL aliquots, each with an initial concentration of 1 mg/mL) were added into 120 µL aliquots of cell suspension (50000 cells/mL) in the 96-well plates. These were incubated for five days, after which an MTT assay was performed. The absorbance was taken at 590 nm using an Elisa plate reader (Victor, Überlingen, Germany). The half-maximal inhibitory concentration (IC50), the concentration at which cell growth inhibition was 50% of the control, was calculated as described elsewhere.

[2] = tested on: L929 (ACC2) mouse fibroblasts; assay: MTT cytotoxicity test, L929; settings: five days incubation, n.c. = no cytotoxicity, read-out: IC50
Excerpt: as §1

[3] = tested on: Actinobacter baumannii (DSM 30008); assay: Serial dilution MIC assay, Actinobacter baumannii; settings: serial dilution 67-0.5 µg/mL, overnight incubation, n.i. = no inhibition, read-out: MIC
Procedure: (§2) Serial dilution assays in 96-well microtiter plates were performed according to our standard protocol in order to determine the minimum inhibitory concentrations (MICs) of pure isolated compounds against different microorganisms. Essentially, aliquots of compounds 1–5 and 9 (20 µL), each with an initial concentration of 1 mg/mL, were diluted in MeOH together with the respective microorganisms to concentrations ranging between 67 µg/mL and 0.5 µg/mL in the 96-well plates, followed by overnight incubation. The MIC was then determined as the lowest concentration at which no growth of the test organism was observed. A broad spectrum of clinically approved test pathogens and sensitivity indicator strains were used in the assays (Table 4 and Table 5). Ciprofloxacin, oxytetracycline, kanamycin, and gentamycin were used as positive controls against bacterial pathogens, while nystatin was used as the positive control against fungi.

[4] = tested on: SKOV-3 (ovarian carcinoma); assay: MTT cytotoxicity test, SKOV-3; settings: five days incubation
Excerpt: as §1

[5] = tested on: A431 (ACC91) human squamous cell carcinomas; assay: MTT cytotoxicity test, A431; settings: five days incubation
Excerpt: as §1

[6] = tested on: MCF-7 (A115) human breast adenocarcinoma; assay: MTT cytotoxicity test, MCF-7; settings: MCF-7 human breast adenocarcinoma, five days incubation
Excerpt: as §1

[7] = tested on: A549 (ACC107) human lung carcinoma; assay: MTT cytotoxicity test, A549; settings: five days incubation
Excerpt: as §1

[8] = tested on: PC-3 (ACC465) human prostate adenocarcinoma; assay: MTT cytotoxicity test, PC-3; settings: PC-3 human prostate adenocarcinoma, five days incubation
Excerpt: as §1

[9] = tested on: Mycolicibacterium smegmatis (ATCC 700084); assay: Serial dilution MIC assay, Mycolicibacterium smegmatis; settings: serial dilution 67-0.5 µg/mL, overnight incubation, n.i. = no inhibition
Procedure: as §2

[10] = tested on: Pichia anomala (DSM 6766); assay: Serial dilution MIC assay, Pichia anomala; settings: serial dilution 67-0.5 µg/mL, overnight incubation, n.i. = no inhibition
Procedure: as §2

[11] = tested on: Mucor hiemalis (DSM 2656); assay: Serial dilution MIC assay, Mucor hiemalis; settings: serial dilution 67-0.5 µg/mL, overnight incubation, n.i. = no inhibition
Procedure: as §2

[12] = tested on: Candida albicans (DSM 1665); assay: Serial dilution MIC assay, Candida albicans; settings: serial dilution 67-0.5 µg/mL, overnight incubation, n.i. = no inhibition
Procedure: as §2

[13] = tested on: Rhodotorula glutinis (DSM 10134); assay: Serial dilution MIC assay, Rhodotorula glutinis; settings: serial dilution 67-0.5 µg/mL, overnight incubation, n.i. = no inhibition
Procedure: as §2

[14] = tested on: Schizosaccharomyces pombe (DSM 70572); assay: Serial dilution MIC assay, Schizosaccharomyces pombe; settings: serial dilution 67-0.5 µg/mL, overnight incubation, n.i. = no inhibition
Procedure: as §2

[15] = tested on: Bacillus subtilis (DSM 10); assay: Serial dilution MIC assay, Bacillus subtilis; settings: DSM10, serial dilution 67-0.5 µg/mL, overnight incubation, n.i. = no inhibition, read-out: MIC
Procedure: as §2

[16] = tested on: Escherichia coli (DSM 1116); assay: Serial dilution MIC assay, Escherichia coli; settings: DSM1116, serial dilution 67-0.5 µg/mL, overnight incubation, n.i. = no inhibition, read-out: MIC
Procedure: as §2

[17] = tested on: Staphylococcus aureus (DSM 346); assay: Serial dilution MIC assay, Staphylococcus aureus; settings: DSM346, serial dilution 67-0.5 µg/mL, overnight incubation, n.i. = no inhibition, read-out: MIC
Procedure: as §2

[18] = tested on: Chromobacterium violaceum (DSM 30191); assay: Serial dilution MIC assay, Chromobacterium violaceum; settings: DSM30191, serial dilution 67-0.5 µg/mL, overnight incubation, n.i. = no inhibition, read-out: MIC
Procedure: as §2

[19] = tested on: Pseudomonas aeruginosa (DSM PA14); assay: Serial dilution MIC assay, Pseudomonas aeruginosa; settings: serial dilution 67-0.5 µg/mL, overnight incubation, n.i. = no inhibition
Procedure: as §2

CO[C@H]1O[C@H]2[C@H](O)CO[C@H]3O[C@H]4[C@@H](C1=CC[C@@H]1C5=C(C(C)C)CC[C@]5(C)CC[C@]14C)[C@]32O [Compound 8, dentifragilin H]
IC50 ([1]; KB 3-1, 120 h): 2000 nM
IC50 ([2]; 120 h): 10000 nM

O=C(O)c1cn(C2CC2)c2cc(N3CCNCC3)c(F)cc2c1=O [ciprofloxacin, reference compound]
MIC [3]: 0.3 µg/mL (≈ 0.905 µM)

C/C(=C\c1csc(C)n1)[C@@H]1C[C@@H]2O[C@]2(C)CCC[C@H](C)[C@H](O)[C@@H](C)C(=O)C(C)(C)[C@@H](O)CC(=O)O1 [epothilon B, reference compound]
IC50 [4]: 0.051 nM
IC50 [1]: 0.033 nM
IC50 [5]: 0.067 nM
IC50 [6]: 0.03 nM
IC50 [2]: 0.047 nM
IC50 [7]: 0.095 nM
IC50 [8]: 0.15 nM

NC[C@H]1O[C@H](O[C@H]2[C@H](O)[C@@H](O[C@H]3O[C@H](CO)[C@@H](O)[C@H](N)[C@H]3O)[C@H](N)C[C@@H]2N)[C@H](O)[C@@H](O)[C@@H]1O [kanamycin, reference compound]
MIC [9]: 1.7 ^b µg/mL

C[C@@H]1[C@H](O)[C@@H](C)/C=C/C=C/CC/C=C/C=C/C=C/C=C/C(O[C@H]2O[C@H](C)[C@@H](O)[C@H](N)[C@@H]2O)CC2O[C@](O)(CC(O)C(O)CCC(O)CC(O)CC(O)CC(=O)O[C@H]1C)CC(O)C2C(=O)O (stereo partly drawn) [nystatin, reference compound]
MIC [10]: 8.3 µg/mL (≈ 8.96 µM)
MIC [11]: 4.2 µg/mL (≈ 4.54 µM)
MIC [12]: 8.3 µg/mL (≈ 8.96 µM)
MIC [13]: 2.1 µg/mL (≈ 2.27 µM)
MIC [14]: 4.2 µg/mL (≈ 4.54 µM)

CN(C)[C@@H]1C(O)=C(C(N)=O)C(=O)[C@@]2(O)C(O)=C3C(=O)c4c(O)cccc4[C@@](C)(O)[C@H]3[C@H](O)[C@@H]12 [oxytetracycline, reference compound]
MIC [15]: 4.2 µg/mL (≈ 9.12 µM)
MIC [16]: 3.3 µg/mL (≈ 7.17 µM)
MIC [17]: 0.2 µg/mL (≈ 0.434 µM)
MIC [18]: 0.8 µg/mL (≈ 1.74 µM)

gentamycin [reference compound]
MIC [19]: 0.4 ^d µg/mL
